Publication PMC8789064, “High-Throughput-Methyl-Reading (HTMR) assay: a solution based on nucleotide methyl-binding proteins enables large-scale screening for DNA/RNA methyltransferases and demethylases” (Nucleic Acids Research, 2021)
Like-named read-outs stand apart in the source and are kept apart here.

Legend:
tri-MBD1 = molecular target: T1, tri-MBD1 (Homo sapiens, UniProt Q9UIS9); test: Counter screen: binding of methyl-binding protein tri-MBD1 without enzyme
T1 construct: Genes encoding tri-MBD1 (tandem three MBD1 1–105 ORF); made in house; host or cells: E. coli BL21(DE3) codon plus RIPL
T1 sequence (Q9UIS9 with tags, fused parts or gaps): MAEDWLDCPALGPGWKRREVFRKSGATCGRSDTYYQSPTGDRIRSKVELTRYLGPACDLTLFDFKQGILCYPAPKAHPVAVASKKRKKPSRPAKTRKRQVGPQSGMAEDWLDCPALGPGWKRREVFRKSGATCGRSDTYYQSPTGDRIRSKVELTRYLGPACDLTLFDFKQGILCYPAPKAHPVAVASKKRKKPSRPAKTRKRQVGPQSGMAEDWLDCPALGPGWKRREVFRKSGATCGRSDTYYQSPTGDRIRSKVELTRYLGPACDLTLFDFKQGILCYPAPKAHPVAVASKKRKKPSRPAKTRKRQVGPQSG
From the text: (§1) False-positive compounds should be abandoned during the high-throughput screening. […] This entails replacing half of the substrate oligonucleotide with product oligonucleotide in the absence of the enzyme and adding the methyl-binding protein into the wells. The FP signal can then be measured according to the above steps.
(§2) Finally, we performed high-throughput screening against DNMT1 and ALKBH5 for an in-house library of 2000 compounds. […] Half of the substrate oligonucleotide was replaced with the product (chemical synthetic) in the assay (the enzyme was removed), in which case the false-positive compounds would still influence the FP signal value while the true hits would not. […] We performed a cofactor-competitive assay to evaluate the biological activity and mechanism of action of hit compounds.

METTL3/14 = molecular target: T2, METTL3/14 (Homo sapiens, UniProt Q86U44); test: HTMR (FP-based) METTL3/METTL14 methylation assay; type: biochemical; conditions: from IC50 vs SAM concentration line, Cheng-Prusoff
T2 construct: The full-length METTL3 and METTL14 plasmids were obtained from Professor Ping Yin; made in house; host or cells: E. coli BL21(DE3) codon plus RIPL
Method: (§3) To start the assay, the binding curve of the substrate oligonucleotide and the product oligonucleotide (chemical synthetic) were titrated to determine the proper concentration of methyl-binding proteins. The final NaCl conditions of DNMT1, TET2, METTL3/14 and ALKBH5 were 400, 300, 250 and 250 mM, respectively. The assays could be performed in 10 μl + 10 μl, 20 μl + 20 μl (as in this study), or other formats in a black 384-well plate (Corning #3575). The former is the reaction volume containing enzyme, oligonucleotide, and cofactors, while the latter is the volume of methyl-binding protein. The reaction was initiated by the addition of the enzymes or the substrates and terminated by the addition of methyl-binding proteins. The FP signals were then measured in fluorescence polarization standard mode by EnVision Multilabel Reader (PerkinElmer) after 10–15 min of incubation. The plate can be repeatedly measured. […] All data were analyzed in GraphPad Prism 7.0.
The enzymes, oligonucleotides, and cofactors were diluted in a reaction buffer containing 20 mM HEPES, pH 7.4, 1 mM DTT and 0.4 U/μl RNase inhibitor (BBI Life sciences). […] After 10–15 min of incubation, the plate was read by Envision (PerkinElmer).
(§4) All the curves were plotted in the Graphpad prism 7.0. And the IC50 values were determined by the log(inhibitor) versus response—variable slope (four parameters) model in Graphpad prism 7.0. […]

DNMT1(351–1600) = molecular target: T3, DNMT1(351–1600) (Homo sapiens, UniProt P26358); test: HTMR (FP-based) DNMT1 methylation assay; type: biochemical
T3 construct: The human DNMT1 (351–1600) gene with N terminal 6xHis tag and a TEV cleavage site; 6xHis (N); TEV cleavage site (N); made in house; host or cells: Spodoptera frugiperda Sf9 (baculovirus)
Method: To start the assay, the binding curve of the substrate oligonucleotide and the product oligonucleotide (chemical synthetic) were titrated to determine the proper concentration of methyl-binding proteins. […] The assays could be performed in 10 μl + 10 μl, 20 μl + 20 μl (as in this study), or other formats in a black 384-well plate (Corning #3575). The former is the reaction volume containing enzyme, oligonucleotide, and cofactors, while the latter is the volume of methyl-binding protein. The reaction was initiated by the addition of the enzymes or the substrates and terminated by the addition of methyl-binding proteins. The FP signals were then measured in fluorescence polarization standard mode by EnVision Multilabel Reader (PerkinElmer) after 10–15 min of incubation. […] All data were analyzed in GraphPad Prism 7.0.
The reaction components (enzyme, oligonucleotide and cofactors) were diluted in a reaction buffer containing 20 mM HEPES, pH 7.4, 1 mM EDTA and 1 mM DTT. […] This was followed by incubation for 10–15 min at RT (room temperature), after which the plate was read by EnVision (PerkinElmer).

DNMT1 = molecular target: T4, DNMT1 (Homo sapiens, UniProt P26358); test: DNMT1 FP binding assay (DNA binding of the enzyme)
T4 construct: The human DNMT1 (351–1600) gene with N terminal 6xHis tag and a TEV cleavage site; 6xHis (N); TEV cleavage site (N); made in house; host or cells: Spodoptera frugiperda Sf9 (baculovirus)
Method: (§5) The FP binding assay of DNMT1 and METTL3/14 was performed in a buffer containing 20 mM HEPES, pH 7.4, and 1 mM DTT. The FP binding assay of TET2 and ALKBH5 was performed in the reaction buffer that removes the NaCl. At high concentrations of NaCl (over 100 mM), weak FP signals were detected for the enzymes.

TET2 = molecular target: T5, TET2 (Homo sapiens, UniProt Q6N021); test: HTMR (FP-based) TET2 demethylation assay; type: biochemical
T5 construct: made in house; host or cells: E. coli BL21(DE3) codon plus RIPL
Method: To start the assay, the binding curve of the substrate oligonucleotide and the product oligonucleotide (chemical synthetic) were titrated to determine the proper concentration of methyl-binding proteins. […] The reaction was initiated by the addition of the enzymes or the substrates and terminated by the addition of methyl-binding proteins. The FP signals were then measured in fluorescence polarization standard mode by EnVision Multilabel Reader (PerkinElmer) after 10–15 min of incubation. […] Additionally, this experiment must avoid strong light exposure.
The reaction buffer containing 20 mM HEPES, pH 8.0, 100 mM NaCl, 1 mM DTT, 1 mM ATP, 1 mM 2-OG, 2 mM ascorbic acid and 100 μM Fe2(NH4)2(SO4)2. Fe^2+ is the last to be added. The reaction contained 40 nM TET2 and 20 nM FAM-labeled fully-methylated DNA occurred at 37°C for 60 min. Next, 20 μl tri-MBD1 (500 nM as final concentration) protein was diluted in 20 mM HEPES, pH 7.4, 500 mM NaCl and transferred into wells to end the reaction. After 10–15 min of incubation, the plate was read by Envision (PerkinElmer).

ALKBH5 [1] = molecular target: T6, ALKBH5 (Homo sapiens, UniProt Q6P6C2); test: HTMR (FP-based) ALKBH5 demethylation assay; type: biochemical; conditions: different concentrations of 2-OG
T6 construct: The untagged MBD1 (1–105) and ALKBH5 (66–292) catalytic domain genes were subcloned; made in house; host or cells: E. coli BL21(DE3) codon plus RIPL
Method: as §3, with “The reaction was initiated by the addition of the enzymes or the substrates and terminated by the addition of methyl-binding proteins.” left out
The reaction buffer containing 20 mM HEPES, pH 7.4, 250 mM NaCl, 200 μM 2-OG, 300 μM ascorbic acid, and 50 μM […]. […] The plate can then be read immediately or after 10–15 min of incubation due to an equal concentration of NaCl. After this, the plate can be read by EnVision (PerkinElmer).
as §4

ALKBH5(66–292) [2] = molecular target: T7, ALKBH5(66–292) (Homo sapiens, UniProt Q6P6C2); test: Thermal shift assay; type: binding; conditions: 5 μM ALKBH5, 100 μM compound (molar ratio 1:20); read-out: Tm shift (ΔTm) of ALKBH5
T7 construct: The untagged MBD1 (1–105) and ALKBH5 (66–292) catalytic domain genes were subcloned; made in house; host or cells: E. coli BL21(DE3) codon plus RIPL
Method: The thermal shift assay was performed with a QuantStudio 6 Flex real-time PCR machine (Applied Biosystems) with a buffer containing 20 mM HEPES, pH 7.4 and 100 mM NaCl. The final system was 20 μl, which contained 5 μM ALKBH5(66–292) protein, 1:1000 dilution of SYPRO Orange dye (purchased from Invitrogen, 5000× stock in DMSO), and DMSO or 100 μM compounds (final DMSO concentration was 0.1%). The samples were heated from 25 to 95°C (2.5°C/min). All samples were performed in triplicate and data were analyzed by Protein Thermal Shift Software version 1.3 (Applied Biosystems).

ALKBH5(66–292) [3] = molecular target: T7, ALKBH5(66–292); test: NMR CPMG and STD experiments; type: binding; conditions: 200 μM compound, 5 μM ALKBH5
Method: Saturation transfer difference (STD) and Carr-Purcell-Meiboom-Gill (CPMG) experiments were performed to investigate the interaction between the compound and the protein, as previously described ([65]). All NMR spectra were acquired on a Bruker Avance III 600 MHz NMR spectrometer equipped with a cryoprobe (Bruker Biospin, Germany). The 5 μM ALKBH5(66–292) protein and 200 μM compound were dissolved into a phosphate buffer containing 20 mM NaH2PO4, 20 mM Na2HPO4, pH 7.4, 100 mM NaCl, 95% D2O, 5% DMSO-d6 and then used in NMR data acquisition. Transverse relaxation-edited spectra were recorded using the water-suppressed CPMG pulse sequence. Sixty-four transients were collected into 48 076 data points with a spectral width of 8.0 kHz and an acquisition time of 3.0 s. STD spectrum was recorded using the pulse sequence of stddiffgp19.3 with water suppression (3–9–19 WATERGATE). The on and off resonance excitation positions were defined at –0.17 and 33 ppm, respectively. The bandwidth for the saturation pulse was set to 42.4 Hz. One hundred and twenty-eight transients were collected into 32,768 data points with a spectral width of 9.6 kHz and an acquisition time of 1.71 s.

ALKBH5 [4] = molecular target: T6, ALKBH5; test: ALKBH5 FP binding assay (RNA binding of the enzyme)
Method: as §5

YTHDF1 = molecular target: T8, YTHDF1 (Homo sapiens, UniProt Q9BYJ9); test: Counter screen: binding of methyl-binding protein YTHDF1 without enzyme; conditions: ALKBH5 assay format, enzyme removed
T8 construct: YTHDF1 (361–559), YTHDF2 (380–579) and YTHDC1 (355–492) were chemically synthesized; made in house; host or cells: E. coli BL21(DE3) codon plus RIPL
T8 sequence (Q9BYJ9 361-559): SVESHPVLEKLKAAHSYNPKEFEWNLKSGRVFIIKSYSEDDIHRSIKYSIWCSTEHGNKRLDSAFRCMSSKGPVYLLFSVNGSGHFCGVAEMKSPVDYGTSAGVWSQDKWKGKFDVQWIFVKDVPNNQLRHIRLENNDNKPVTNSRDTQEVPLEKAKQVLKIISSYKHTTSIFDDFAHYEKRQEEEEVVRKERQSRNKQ
From the text: as §1, §2

GST-YTHDF1 YTH domain = molecular target: T9, GST-YTHDF1 YTH domain (UniProt Q9BYJ9 361-559); test: fluorescence polarization; 250 mM NaCl; over 100-fold selectivity for m6A over unmodified RNA; FP, 384-well; methyl readers at final NaCl 400 mM (DNMT1 assay), 300 mM (TET2), 250 mM (METTL3/14, ALKBH5), 10-15 min; DNMT1 and METTL3/14 binding in 20 mM HEPES pH 7.4, 1 mM DTT with varied NaCl; TET2 and ALKBH5 in reaction buffer without NaCl; temperature not stated; conditions: protein: recombinant; tags: N-terminal GST; label: 5'-FAM; single strand
T9 sequence: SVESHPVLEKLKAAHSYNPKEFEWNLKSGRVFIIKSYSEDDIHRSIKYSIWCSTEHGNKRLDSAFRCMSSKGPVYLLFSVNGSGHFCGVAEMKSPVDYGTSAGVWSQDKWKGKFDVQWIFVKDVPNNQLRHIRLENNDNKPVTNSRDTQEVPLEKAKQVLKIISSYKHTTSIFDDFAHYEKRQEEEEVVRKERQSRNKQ

[5] = molecular target: T10, tri-MBD1 (GST-MBD1-MBD1-MBD1) (UniProt Q9UIS9 1-105); test: fluorescence polarization; 400 mM NaCl, 20 nM DNMT1 present; FP, 384-well; methyl readers at final NaCl 400 mM (DNMT1 assay), 300 mM (TET2), 250 mM (METTL3/14, ALKBH5), 10-15 min; DNMT1 and METTL3/14 binding in 20 mM HEPES pH 7.4, 1 mM DTT with varied NaCl; TET2 and ALKBH5 in reaction buffer without NaCl; temperature not stated; conditions: protein: recombinant; tags: N-terminal GST (pGEX-6P-1); label: 5'-FAM top strand; blunt
T10 chain: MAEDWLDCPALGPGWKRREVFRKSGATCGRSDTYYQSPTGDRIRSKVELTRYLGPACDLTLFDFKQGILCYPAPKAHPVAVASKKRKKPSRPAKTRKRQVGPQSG

T6 sequence (Q6P6C2 66-292): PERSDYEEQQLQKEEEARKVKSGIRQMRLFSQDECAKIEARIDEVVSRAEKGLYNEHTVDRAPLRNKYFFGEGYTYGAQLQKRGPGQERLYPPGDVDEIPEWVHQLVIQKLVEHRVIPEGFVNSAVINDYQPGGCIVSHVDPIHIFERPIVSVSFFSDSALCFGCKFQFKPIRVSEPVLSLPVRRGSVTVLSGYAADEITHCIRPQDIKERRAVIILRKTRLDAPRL
T3 sequence (P26358 351-1600): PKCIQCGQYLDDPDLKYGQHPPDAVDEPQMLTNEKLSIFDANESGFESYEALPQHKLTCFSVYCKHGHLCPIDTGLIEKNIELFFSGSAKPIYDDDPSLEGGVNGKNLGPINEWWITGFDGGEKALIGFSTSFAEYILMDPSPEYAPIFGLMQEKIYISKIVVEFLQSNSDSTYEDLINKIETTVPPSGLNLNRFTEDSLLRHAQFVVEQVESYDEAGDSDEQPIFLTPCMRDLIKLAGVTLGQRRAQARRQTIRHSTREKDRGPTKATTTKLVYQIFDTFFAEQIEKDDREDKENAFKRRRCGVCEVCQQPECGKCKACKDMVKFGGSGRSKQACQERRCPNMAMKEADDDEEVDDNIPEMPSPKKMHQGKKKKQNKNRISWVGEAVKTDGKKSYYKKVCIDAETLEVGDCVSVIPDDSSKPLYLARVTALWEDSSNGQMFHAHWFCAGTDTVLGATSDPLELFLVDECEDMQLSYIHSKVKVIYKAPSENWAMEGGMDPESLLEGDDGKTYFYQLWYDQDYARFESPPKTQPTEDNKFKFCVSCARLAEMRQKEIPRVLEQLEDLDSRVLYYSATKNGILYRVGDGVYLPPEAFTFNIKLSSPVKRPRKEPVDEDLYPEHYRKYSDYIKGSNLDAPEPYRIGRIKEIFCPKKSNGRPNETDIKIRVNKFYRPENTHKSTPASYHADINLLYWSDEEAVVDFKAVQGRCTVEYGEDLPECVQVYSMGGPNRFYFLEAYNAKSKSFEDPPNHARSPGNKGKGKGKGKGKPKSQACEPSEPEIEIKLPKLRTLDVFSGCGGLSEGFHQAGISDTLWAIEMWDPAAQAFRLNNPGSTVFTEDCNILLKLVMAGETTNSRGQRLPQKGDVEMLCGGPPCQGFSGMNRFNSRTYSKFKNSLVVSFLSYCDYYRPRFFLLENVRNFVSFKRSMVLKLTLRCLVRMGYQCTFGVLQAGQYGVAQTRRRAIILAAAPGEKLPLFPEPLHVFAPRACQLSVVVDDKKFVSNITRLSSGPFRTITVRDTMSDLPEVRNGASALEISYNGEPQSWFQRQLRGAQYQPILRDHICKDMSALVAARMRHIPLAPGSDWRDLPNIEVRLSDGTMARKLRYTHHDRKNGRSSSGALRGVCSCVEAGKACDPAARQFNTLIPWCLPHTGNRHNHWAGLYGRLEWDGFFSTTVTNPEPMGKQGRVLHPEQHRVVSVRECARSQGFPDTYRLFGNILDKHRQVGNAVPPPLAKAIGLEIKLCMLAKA
T4 sequence (P26358 351-1600): as above
T7 sequence (Q6P6C2 66-292): as the sequence (Q6P6C2 66-292) above
T2 sequence (Q86U44 whole entry): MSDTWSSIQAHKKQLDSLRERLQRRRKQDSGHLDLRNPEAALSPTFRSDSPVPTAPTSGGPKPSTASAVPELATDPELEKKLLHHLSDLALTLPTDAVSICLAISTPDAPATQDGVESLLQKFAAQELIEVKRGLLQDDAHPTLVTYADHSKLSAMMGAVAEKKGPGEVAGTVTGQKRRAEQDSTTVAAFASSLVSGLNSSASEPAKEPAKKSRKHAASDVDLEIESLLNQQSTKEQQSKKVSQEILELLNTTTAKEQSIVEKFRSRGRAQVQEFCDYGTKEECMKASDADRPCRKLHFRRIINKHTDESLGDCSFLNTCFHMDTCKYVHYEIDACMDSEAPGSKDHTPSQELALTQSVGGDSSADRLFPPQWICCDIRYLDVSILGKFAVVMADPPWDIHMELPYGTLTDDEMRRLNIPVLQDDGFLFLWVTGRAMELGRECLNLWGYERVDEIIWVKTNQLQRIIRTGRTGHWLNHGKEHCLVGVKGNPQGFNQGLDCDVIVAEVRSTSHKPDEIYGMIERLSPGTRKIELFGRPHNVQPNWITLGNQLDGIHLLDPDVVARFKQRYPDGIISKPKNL

O=C(O)c1ccc(O)c2ncccc12 [IOX1, reference compound]
Effect on binding of tri-MBD1 (tri-MBD1; high concentration (over 50 μM)): can inhibit the binding of tri-MBD1

Nc1ncnc2c1ncn2[C@@H]1O[C@H](CSCC[C@H](N)C(=O)O)[C@@H](O)[C@H]1O [SAH]
Ki (METTL3/14): 2.06 ± 2.8 µM

O=c1oc2c(O)c(O)cc3c(=O)oc4c(O)c(O)cc1c4c23 [ellagic acid]
Mechanism with respect to cofactor SAM (DNMT1(351–1600); cofactor-competitive assay, increasing SAM): SAM-noncompetitive
IC50 (DNMT1(351–1600); different concentrations of SAM, read-out: IC50 against DNMT1): ~67 µM
Effect on DNA binding of DNMT1 (DNMT1): competed with the binding of DNA
Effect on DNA binding of DNMT1 (DNMT1; listed as Ellagic acid): disturbed the DNA-DNMT1
Interference with the assay (counter screen) (tri-MBD1; DNMT1 assay format, enzyme removed): didn’t interference the assay

O=c1c(O)c(-c2ccc(O)c(O)c2)oc2cc(O)cc(O)c12 [quercetin]
Activity during the TET2 demethylation reaction (TET2): high activity
Change of IC50 in the ALKBH5 reaction with 2-OG concentration (ALKBH5 [1]): did not significantly change
ΔTm at 100 µM (ALKBH5(66–292) [2]): 2.57 °C
Direct binding to ALKBH5 catalytic domain (CPMG, STD) (ALKBH5(66–292) [3]): strongly bound
Effect on RNA binding of ALKBH5 (ALKBH5 [4]): did not affect the RNA binding of ALKBH5
Effect on RNA binding of ALKBH5 (ALKBH5 [4]; listed as Quercetin): didn’t affect the RNA binding
Interference with the assay (counter screen) (YTHDF1): didn’t interference the assay

GAACCGGACUGUCUUA (ssRNA, m6A at position 8) [m6A-modified RNA]
binding result (GST-YTHDF1 YTH domain): binds

B1: fully-methylated DNA [M/M] (dsDNA)
DNA 1: TACGACCAGGAT
DNA 2: ATCCTGGTCGTA
modifications: 5mC at position 3 of top strand and position 9 of bottom strand
binding result [5]: binds
